According to patent US8106048B2, “Heterocyclic NF-κB inhibitors” (4SC AG, priority 2004, dated 2012):

Tested on: A549-NF-κB-SEAP reporter cells
Test: Inhibition of NF-κB-induced inflammation: […] NINA Instant Assay, TNF-α stimulated SEAP reporter
Type: cell-based
Conditions: % inhibition classes
From the text: For the determination of anti-inflammatory activity of the compounds the […]® NINA Instant Assay from Cell Culture Service GmBH was used. This assay is based on […] recombinant A549-NF-κB-SEAP reporter cells preceded in 96-well flat bottom plates. As the transfected reportergen for SEAP (secreted embryonic alkaline phosphatase) is under transcriptional control of a NF-κB-responsive element, the expression of this reporter is activated upon stimulation with TNF-α. SEAP secretion into the culture supernatant can be detected by the chemiluminescent substrate CSPD®. Test compounds that inhibit the NF-κB activation show reduced SEAP activity and reduced luminescent readout.
Following 18 h of reactivation at 37° C., 5% CO2 and 90% relative humidity, the cells were incubated with 0.01 up to 100 μM of test compound for 4.5 h before stimulation with 2 ng/ml TNF-α. After stimulation with TNF-α for 22 h endogenous phosphatases were inactivated and CSPD® substrate was supplied for 40 min. SEAP activity then was quantified by measuring luminescence as relative light units (RLU) using a Tecan Ultra reader. Each data point was recorded in quadruplicates and EC50 values were calculated via fitting function and the Microsoft Excel Solver.

Structure (SMILES)	Biological activity (inhibition in the NF-κB inflammation assay)
Cc1cc2nc(NC(=O)c3csc(C4CCN(C(=O)c5ccccc5OC(F)(F)F)CC4)n3)[nH]c2cc1C [compound 133]	+++ (“+++” stands for 90-100% inhibition)
O=C(Nc1ccccc1)N1CCC(c2nc(C(=O)N3CCN(c4cccc(C(F)(F)F)c4)CC3)cs2)CC1 [compound 134]	+ (“+” stands for 50-80% inhibition)
O=C(Nc1cc(F)cc2c1OCCO2)N1CCC(c2nc(C(=O)N3CCN(c4cccc(C(F)(F)F)c4)CC3)cs2)CC1 [compound 135]	+ (“+” stands for 50-80% inhibition)
O=C(Nc1ccc2c(c1)OCCO2)N1CCC(c2nc(C(=O)N3CCN(c4cccc(C(F)(F)F)c4)CC3)cs2)CC1 [compound 136]	+ (“+” stands for 50-80% inhibition)
Cc1cc(NC(=O)N2CCC(c3nc(C(=O)N4CCN(c5cccc(C(F)(F)F)c5)CC4)cs3)CC2)c(C(F)(F)F)o1 [compound 137]	+ (“+” stands for 50-80% inhibition)
O=C(Nc1ccccc1OC(F)(F)F)N1CCC(c2nc(C(=O)N3CCN(c4cccc(C(F)(F)F)c4)CC3)cs2)CC1 [compound 140]	+ (“+” stands for 50-80% inhibition)
O=C(Nc1cccc(F)c1)N1CCC(c2nc(C(=O)N3CCN(c4cccc(C(F)(F)F)c4)CC3)cs2)CC1 [compound 142]	++ (“++” means 80-90%)
O=C(Nc1ccc(F)cc1)N1CCC(c2nc(C(=O)N3CCN(c4cccc(C(F)(F)F)c4)CC3)cs2)CC1 [compound 143]	+ (“+” stands for 50-80% inhibition)
Cc1cc2nc(NC(=O)c3csc(C4CCNCC4)n3)[nH]c2cc1C [compound 144]	+ (“+” stands for 50-80% inhibition)
CC(c1cc2ccccc2[nH]1)N(C)C(=O)c1csc(C2CCN(C(=O)c3ccccc3OC(F)(F)F)CC2)n1 (centres unmarked) [compound 145]	+ (“+” stands for 50-80% inhibition)
O=C(c1csc(C2CCN(C(=O)c3ccccc3OC(F)(F)F)CC2)n1)N1CCOC(c2ccccc2)C1 (centres unmarked) [compound 146]	+ (“+” stands for 50-80% inhibition)
CN(C(=O)c1csc(C2CCN(C(=O)c3ccccc3OC(F)(F)F)CC2)n1)C(CN1CCOCC1)c1ccccc1 (centres unmarked) [compound 147]	+ (“+” stands for 50-80% inhibition)
O=C(c1csc(C2CCN(C(=O)c3ccccc3OC(F)(F)F)CC2)n1)N(CCO)Cc1ccccc1 [compound 148]	++ (“++” means 80-90%)
O=C(c1csc(C2CCN(C(=O)c3ccccc3OC(F)(F)F)CC2)n1)N(CCc1ccccc1)Cc1ccccc1 [compound 149]	+ (“+” stands for 50-80% inhibition)
CNc1ccc(Cl)cc1C1c2ccccc2CCN1C(=O)c1csc(C2CCN(C(=O)c3ccccc3OC(F)(F)F)CC2)n1 (centres unmarked) [compound 150]	++ (“++” means 80-90%)
O=C(c1csc(C2CCN(C(=O)c3ccccc3OC(F)(F)F)CC2)n1)N1CCN(c2cccc(Cl)c2)CC1 [compound 151]	+ (“+” stands for 50-80% inhibition)
COc1nc(OC)nc(N2CCN(C(=O)c3csc(C4CCNCC4)n3)CC2)n1 [compound 152]	++ (“++” means 80-90%)
COc1ccc(N2CCC(c3nc(C(=O)N4CCN(c5cccc(C(F)(F)F)c5)CC4)cs3)CC2)c(OC)c1 [compound 153]	+ (“+” stands for 50-80% inhibition)
O=C(c1csc(C2CCN(c3ccc(OC(F)(F)F)cc3)CC2)n1)N1CCN(c2cccc(C(F)(F)F)c2)CC1 [compound 154]	+ (“+” stands for 50-80% inhibition)
O=C(c1csc(C2CCN(c3ccc(C(F)(F)F)cc3)CC2)n1)N1CCN(c2cccc(C(F)(F)F)c2)CC1 [compound 155]	+ (“+” stands for 50-80% inhibition)
O=C(c1csc(C2CCN(c3ccc4c(c3)OCO4)CC2)n1)N1CCN(c2cccc(C(F)(F)F)c2)CC1 [compound 156]	+ (“+” stands for 50-80% inhibition)
O=C(c1csc(C2CCN(c3ccc4c(c3)OCCO4)CC2)n1)N1CCN(c2cccc(C(F)(F)F)c2)CC1 [compound 157]	+ (“+” stands for 50-80% inhibition)

Structure (SMILES)	Biological activity (inhibition in the NF-κB inflammation assay)
COc1ccccc1N1CCC(c2nc(C(=O)N3CCN(c4cccc(C(F)(F)F)c4)CC3)cs2)CC1 [compound 158]	+ (“+” stands for 50-80% inhibition)
COc1ccc(N2CCC(c3nc(C(=O)N4CCN(c5cccc(C(F)(F)F)c5)CC4)cs3)CC2)cc1OC [compound 159]	+ (“+” stands for 50-80% inhibition)
O=C(Cc1ccc(F)cc1)N1CCC(c2nc(C(=O)N3CCc4cc(O)c(O)cc4C3)cs2)CC1 [compound 160]	+ (“+” stands for 50-80% inhibition)
COc1cc2c(cc1OC)CN(C(=O)c1csc(C3CCN(C(=O)Cc4ccc(F)cc4)CC3)n1)CC2 [compound 161]	+ (“+” stands for 50-80% inhibition)
O=C(Cc1ccc(F)cc1)N1CCC(c2nc(C(=O)N3CCc4ccccc43)cs2)CC1 [compound 162]	+ (“+” stands for 50-80% inhibition)
O=C(Cc1ccc(F)cc1)N1CCC(c2nc(C(=O)N3CCc4ccccc4C3)cs2)CC1 [compound 163]	+ (“+” stands for 50-80% inhibition)
COc1cc(N2CCC(c3nc(C(=O)N4CCN(c5cccc(C(F)(F)F)c5)CC4)cs3)CC2)nc(OC)n1 [compound 164]	++ (“++” means 80-90%)
O=C(c1csc(C2CCN(Cc3ccccc3Br)CC2)n1)N1CCN(c2cccc(C(F)(F)F)c2)CC1 [compound 165]	+ (“+” stands for 50-80% inhibition)
N#Cc1ccc(CN2CCC(c3nc(C(=O)N4CCN(c5cccc(C(F)(F)F)c5)CC4)cs3)CC2)cc1 [compound 166]	+ (“+” stands for 50-80% inhibition)
O=C(c1csc(C2CCN(Cc3ccc(-c4ccccc4)cc3)CC2)n1)N1CCN(c2cccc(C(F)(F)F)c2)CC1 [compound 167]	+ (“+” stands for 50-80% inhibition)
O=C(c1csc(C2CCN(Cc3c(F)cccc3F)CC2)n1)N1CCN(c2cccc(C(F)(F)F)c2)CC1 [compound 168]	+ (“+” stands for 50-80% inhibition)
O=C(c1csc(C2CCN(Cc3ccc(C(F)(F)F)cc3)CC2)n1)N1CCN(c2cccc(C(F)(F)F)c2)CC1 [compound 169]	+ (“+” stands for 50-80% inhibition)
O=C(c1csc(C2CCN(Cc3ccc(F)cc3)CC2)n1)N1CCN(c2cccc(C(F)(F)F)c2)CC1 [compound 170]	+ (“+” stands for 50-80% inhibition)
O=C(c1csc(C2CCN(Cc3ccc(F)cc3Cl)CC2)n1)N1CCN(c2cccc(C(F)(F)F)c2)CC1 [compound 171]	+ (“+” stands for 50-80% inhibition)
O=C(c1csc(C2CCN(Cc3ccc(OC(F)(F)F)cc3)CC2)n1)N1CCN(c2cccc(C(F)(F)F)c2)CC1 [compound 172]	+ (“+” stands for 50-80% inhibition)
COc1cccc(CN2CCC(c3nc(C(=O)N4CCN(c5cccc(C(F)(F)F)c5)CC4)cs3)CC2)c1 [compound 173]	+ (“+” stands for 50-80% inhibition)
O=C(c1csc(C2CCN(Cc3ccc(Br)cc3)CC2)n1)N1CCN(c2cccc(C(F)(F)F)c2)CC1 [compound 174]	+ (“+” stands for 50-80% inhibition)
O=C(c1csc(C2CCN(Cc3cc(C(F)(F)F)cc(C(F)(F)F)c3)CC2)n1)N1CCN(c2cccc(C(F)(F)F)c2)CC1 [compound 175]	+ (“+” stands for 50-80% inhibition)
COc1nc(OC)nc(N2CCC(c3nc(C(=O)N4CCN(c5cccc(C(F)(F)F)c5)CC4)cs3)CC2)n1 [compound 176]	+ (“+” stands for 50-80% inhibition)
O=C(c1csc(C2CCN(Cc3ccccc3)CC2)n1)N1CCN(c2cccc(C(F)(F)F)c2)CC1 [compound 177]	+ (“+” stands for 50-80% inhibition)
COc1cccc(N2CCC(c3nc(C(=O)N4CCN(c5cccc(C(F)(F)F)c5)CC4)cs3)CC2)c1 [compound 178]	+ (“+” stands for 50-80% inhibition)
COC(=O)C1Cc2ccc(O)cc2CN1C(=O)c1csc(C2CCN(C(=O)Cc3ccc(F)cc3)CC2)n1 (centres unmarked) [compound 179]	+ (“+” stands for 50-80% inhibition)
